Tests used:
human CaV3.1 = molecular target: T1, human CaV3.1 (Homo sapiens, UniProt O43497); assay: T-type calcium channel window current FLIPR assay, CaV3.1; format: cell-based; conditions: n = 3, read-out: IC50 CaV3.1 (LVA CaVs)
T1 construct: expressed in transfected cells; host or cells: HEK 293 T cells, transient transfection (FuGENE HD)
Method: (§1) The human embryonic kidney 293 (HEK 293) cell lines (from Emmanuel Bourinet, Montpellier, France) stably expressing CaV3.2 or CaV3.3 were cultured under 5% carbon dioxide at 37 °C in Dulbecco’s Modified Eagle Medium (DMEM) Glutamax (Gibco, Life Technologies, Carlsbad, CA, USA) supplemented with 10% (v/v) fetal bovine serum (FBS), 100 U/mL penicillin, 100 μg/mL streptomycin (Gibco, Life Technologies, Carlsbad, CA, USA), and 750 μg/mL geneticin (G418) (Gibco, Life Technologies). The Chinese Hamster Ovary (CHO) cell lines (Emmanuel Bourinet, Montpellier, France) expressing CaV3.1 were cultured under 5% carbon dioxide at 37 °C in Alpha Minimum Essential Media (MEM) Glutamax (Gibco, Life Technologies), supplemented with 10% (v/v) fetal bovine serum (FBS) and 300 μg/mL geneticin (G418) (Gibco, Life Technologies). The human neuroblastoma SH-SY5Y cells (Victor Diaz, Goettingen, Germany) were cultured under 5% carbon dioxide at 37 °C in RPMI 1640 antibiotic-free medium (Invitrogen, Carlsbad, CA, USA), supplemented with 15% FBS and 2 mM GlutaMAX™ (Invitrogen). D-PBS (Gibco, Life Technologies) was used to wash the cells, and 0.25% Trypsin-EDTA (Gibco, Life Technologies) was used to detach cells from the flask surface. They were split in a ratio of 1:5 (ideally 1000 cells/cm^2) when they reached 70–80% confluence (every 2–3 days). Transiently transfected CaV3.1 HEK293 T cells were used in FLIPR Assays. HEK 293 T cells were cultured under 5% carbon dioxide at 37 °C in DMEM supplemented with 10% (v/v) FBS. D-PBS was used to wash the cells, and 0.25% Trypsin-EDTA was used to detach cells from the flask surface. The cells were split and seeded at 6 million cells per T175 flask, to reach 70–80% confluence after 24 h. The next day, 12 μg DNA of human CaV3.1 was incubated in 900 μL serum-free DMEM with 36 μL FuGENE HD transfection reagent (Promega Corporation, Madison, WI, USA) (1:3 DNA/Fugene ratio) for 20 min, and then the mixture was added into the cell flask slowly, drop by drop. After the transfection, the cells were cultured under 5% carbon dioxide at 37 °C for 24 h and then moved to a 28 °C incubator.
HEK 293 cells stably expressing CaV3.2 or CaV3.3 were seeded into 384-well black wall clear bottom plates (Corning) at a density of 30,000 cells per well. Transiently transfected CaV3.1HEK293 T cells were seeded into 384-well black wall clear bottom plates at a density of 60,000 cells per well. Once the cells reached 90–95% confluence after 24 h, the media were removed from the wells and replaced with 20 μL of 10% calcium 4 dye (Molecular Devices, Sunnyvale, CA, USA) in HBSS-HEPES (containing 5 mM KCl, 10 mM HEPES, 140 mM NaCl, 10 mM glucose, and 0.5 mM CaCl2, pH 7.4) with 0.1% bovine serum albumin (BSA). The cells were incubated for 30 min at 37 °C in the presence of 5% carbon dioxide. Each well on the reagent plates for the first addition contained 15 μL different concentrations of compounds dissolved in HBSS-HEPES containing 0.1% BSA and <0.5% DMSO and was incubated for 20 min after loaded. Positive and negative controls contained 15 μL of HBSS-HEPES (0.1% BSA) alone. The plates were placed in the FLIPR^TETRA (Molecular Devices, Sunnyvale, CA, USA) programmed to measure maximum fluorescence intensity following a second addition of the agonist 5 mM CaCl2. The fluorescence readings were recorded and converted as described previously, and HBSS-HEPES (0.1% BSA) was used in the second addition as a negative control.

MCF-7 cells = assay: Cell viability MTT assay, MCF-7; format: cell-based, human; conditions: for viability at 50 µM: MCF7, 50 µM, n = 4; for IC50: n = 3
Method: Human breast cancer cell line MCF-7 and T-47D, lung cancer cell line A549, and colon cancer cell line HT-29 were cultured under 5% carbon dioxide at 37 °C in DMEM Glutamax (Gibco, Life Technologies) supplemented with 10% (v/v) FBS. They were split in a ratio of 1:3–1:6 (ideally 2–4 × 10,000 cells/cm^2) when they reached 70–80% confluence using 0.25% Trypsin-EDTA. For cell viability MTT assay, cells were seeded into 96-well clear bottom culture plates (Corning, Lowell, MA, USA) at a density of 5 × 10^3 cells/well and settled at 37 °C for 24 h.
Seeded cells were treated with various concentrations of compounds for desired time period (24, 48 and 72 h). After the treatments, the media were removed from each well, and replaced with 25 μL of serum-free media and 25 μL of MTT Reagent (cat. no., ab211091; Abcam, Cambridge, MA, USA). The plate was then incubated at 37 °C for 3 h, and 75 μL of MTT Solvent (cat. no., ab211091; Abcam) was added into each well after incubation. The absorbance was evaluated at 590 nm. Cell-wells treated with 0.1% DMSO were used as positive control and no cell-wells were used as background control.

CaV2.2 = molecular target: T2, CaV2.2 (Homo sapiens, UniProt Q00975); assay: HVA N-type calcium channel FLIPR assay in SH-SY5Y cells; format: cell-based; conditions: 10 µM nifedipine present, n = 3, read-out: IC50 CaV2.2 (HVA CaVs)
T2 construct: endogenous in cells; host or cells: SH-SY5Y human neuroblastoma cells
T2 sequence (Q00975 whole entry): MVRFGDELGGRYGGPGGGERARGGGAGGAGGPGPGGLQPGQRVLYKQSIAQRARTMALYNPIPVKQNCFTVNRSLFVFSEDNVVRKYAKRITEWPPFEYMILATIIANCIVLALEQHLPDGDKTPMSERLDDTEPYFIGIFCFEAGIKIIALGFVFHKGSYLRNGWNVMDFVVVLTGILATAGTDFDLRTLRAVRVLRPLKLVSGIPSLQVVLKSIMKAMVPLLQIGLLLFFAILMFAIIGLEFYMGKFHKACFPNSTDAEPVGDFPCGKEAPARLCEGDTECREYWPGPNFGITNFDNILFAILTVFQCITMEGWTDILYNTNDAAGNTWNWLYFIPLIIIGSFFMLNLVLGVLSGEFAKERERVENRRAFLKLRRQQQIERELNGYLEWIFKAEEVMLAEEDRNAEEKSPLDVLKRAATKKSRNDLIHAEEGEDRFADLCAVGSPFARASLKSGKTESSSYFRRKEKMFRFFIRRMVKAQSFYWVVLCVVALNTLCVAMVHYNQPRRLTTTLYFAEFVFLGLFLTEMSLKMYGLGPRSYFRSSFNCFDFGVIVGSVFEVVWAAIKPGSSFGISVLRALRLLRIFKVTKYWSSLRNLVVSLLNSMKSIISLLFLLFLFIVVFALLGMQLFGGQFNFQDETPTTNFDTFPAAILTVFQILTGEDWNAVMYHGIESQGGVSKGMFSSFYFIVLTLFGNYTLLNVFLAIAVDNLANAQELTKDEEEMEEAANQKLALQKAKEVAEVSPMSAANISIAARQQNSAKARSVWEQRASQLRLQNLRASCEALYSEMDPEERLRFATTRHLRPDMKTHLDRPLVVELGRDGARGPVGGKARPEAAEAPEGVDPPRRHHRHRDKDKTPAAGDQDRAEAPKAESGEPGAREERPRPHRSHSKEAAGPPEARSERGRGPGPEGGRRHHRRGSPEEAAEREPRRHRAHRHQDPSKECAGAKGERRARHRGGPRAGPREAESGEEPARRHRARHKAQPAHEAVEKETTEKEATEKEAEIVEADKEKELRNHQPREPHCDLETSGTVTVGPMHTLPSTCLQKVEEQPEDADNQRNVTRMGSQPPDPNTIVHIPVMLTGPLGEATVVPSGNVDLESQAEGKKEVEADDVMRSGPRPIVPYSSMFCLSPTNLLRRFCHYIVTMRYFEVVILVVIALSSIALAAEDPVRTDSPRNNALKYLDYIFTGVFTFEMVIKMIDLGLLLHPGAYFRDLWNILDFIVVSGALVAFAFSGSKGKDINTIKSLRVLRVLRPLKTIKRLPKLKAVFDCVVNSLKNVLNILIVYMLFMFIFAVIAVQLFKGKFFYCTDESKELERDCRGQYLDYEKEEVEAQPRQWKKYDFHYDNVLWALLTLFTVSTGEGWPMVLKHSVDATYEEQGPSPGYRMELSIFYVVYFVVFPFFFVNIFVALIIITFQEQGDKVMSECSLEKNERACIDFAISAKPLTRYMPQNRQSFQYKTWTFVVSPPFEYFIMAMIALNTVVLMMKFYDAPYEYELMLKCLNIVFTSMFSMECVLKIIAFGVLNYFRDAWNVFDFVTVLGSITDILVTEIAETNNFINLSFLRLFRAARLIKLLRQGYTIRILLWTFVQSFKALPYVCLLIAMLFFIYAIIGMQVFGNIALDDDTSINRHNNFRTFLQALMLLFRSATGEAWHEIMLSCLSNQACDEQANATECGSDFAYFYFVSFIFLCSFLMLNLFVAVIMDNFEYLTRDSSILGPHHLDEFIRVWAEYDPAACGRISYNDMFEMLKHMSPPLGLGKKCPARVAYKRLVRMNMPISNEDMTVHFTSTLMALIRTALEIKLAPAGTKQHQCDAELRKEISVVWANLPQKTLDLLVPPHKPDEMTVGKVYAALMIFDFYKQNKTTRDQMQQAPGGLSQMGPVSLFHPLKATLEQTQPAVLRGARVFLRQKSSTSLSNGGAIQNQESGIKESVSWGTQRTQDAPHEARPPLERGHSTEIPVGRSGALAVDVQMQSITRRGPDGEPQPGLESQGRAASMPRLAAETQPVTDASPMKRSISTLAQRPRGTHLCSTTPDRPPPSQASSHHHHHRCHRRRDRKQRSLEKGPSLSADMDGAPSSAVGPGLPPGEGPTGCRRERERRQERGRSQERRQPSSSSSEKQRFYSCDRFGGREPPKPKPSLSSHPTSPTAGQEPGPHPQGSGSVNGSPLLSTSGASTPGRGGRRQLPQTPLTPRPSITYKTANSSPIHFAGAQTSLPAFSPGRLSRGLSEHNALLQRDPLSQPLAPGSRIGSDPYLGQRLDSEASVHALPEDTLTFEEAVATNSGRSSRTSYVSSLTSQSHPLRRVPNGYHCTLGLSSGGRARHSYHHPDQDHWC
T2 sequence (P54289 25-956 partner limits assumed): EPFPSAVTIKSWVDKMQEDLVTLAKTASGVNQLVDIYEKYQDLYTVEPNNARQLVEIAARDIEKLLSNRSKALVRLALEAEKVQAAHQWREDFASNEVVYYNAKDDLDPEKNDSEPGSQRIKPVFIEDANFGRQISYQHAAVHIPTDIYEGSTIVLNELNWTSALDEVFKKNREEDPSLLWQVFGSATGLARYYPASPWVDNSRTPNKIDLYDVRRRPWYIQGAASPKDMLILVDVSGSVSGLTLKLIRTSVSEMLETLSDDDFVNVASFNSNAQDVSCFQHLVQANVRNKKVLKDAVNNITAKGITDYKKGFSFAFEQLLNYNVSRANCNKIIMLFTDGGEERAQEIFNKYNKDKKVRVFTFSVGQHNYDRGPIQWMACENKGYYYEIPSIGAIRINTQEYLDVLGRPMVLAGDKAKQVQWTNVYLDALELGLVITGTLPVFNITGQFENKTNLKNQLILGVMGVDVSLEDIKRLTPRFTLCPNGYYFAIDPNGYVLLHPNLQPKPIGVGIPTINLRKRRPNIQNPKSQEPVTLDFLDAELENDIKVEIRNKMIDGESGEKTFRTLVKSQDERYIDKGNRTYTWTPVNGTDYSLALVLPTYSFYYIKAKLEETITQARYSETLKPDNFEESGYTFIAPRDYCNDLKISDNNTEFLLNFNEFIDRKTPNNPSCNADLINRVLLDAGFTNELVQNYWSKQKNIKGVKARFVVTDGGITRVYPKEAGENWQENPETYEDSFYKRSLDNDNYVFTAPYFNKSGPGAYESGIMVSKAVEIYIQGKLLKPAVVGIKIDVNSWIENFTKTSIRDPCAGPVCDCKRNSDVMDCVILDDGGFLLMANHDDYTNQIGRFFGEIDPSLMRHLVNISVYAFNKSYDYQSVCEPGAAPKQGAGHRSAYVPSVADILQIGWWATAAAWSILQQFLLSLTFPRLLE
T2 sequence (P54289 957-1103 partner limits assumed): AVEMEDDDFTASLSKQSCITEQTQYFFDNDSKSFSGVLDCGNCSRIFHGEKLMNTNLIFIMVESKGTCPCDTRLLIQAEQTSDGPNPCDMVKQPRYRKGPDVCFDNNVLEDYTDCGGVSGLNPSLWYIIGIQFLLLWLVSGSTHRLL
T2 sequence (P54284 whole entry partner): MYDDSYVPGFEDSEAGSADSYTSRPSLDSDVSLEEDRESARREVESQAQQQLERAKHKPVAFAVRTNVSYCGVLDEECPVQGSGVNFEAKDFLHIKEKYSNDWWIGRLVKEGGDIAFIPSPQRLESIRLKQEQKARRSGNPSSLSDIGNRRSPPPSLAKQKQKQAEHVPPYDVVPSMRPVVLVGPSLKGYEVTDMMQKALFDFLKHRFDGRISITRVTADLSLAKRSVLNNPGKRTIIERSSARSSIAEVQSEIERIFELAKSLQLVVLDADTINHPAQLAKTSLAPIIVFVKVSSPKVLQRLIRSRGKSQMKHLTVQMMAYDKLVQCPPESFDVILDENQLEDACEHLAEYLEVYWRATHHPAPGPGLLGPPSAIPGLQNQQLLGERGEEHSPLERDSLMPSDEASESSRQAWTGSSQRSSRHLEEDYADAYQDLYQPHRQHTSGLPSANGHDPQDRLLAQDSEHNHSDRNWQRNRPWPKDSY
Method: as §1
SH-SY5Y cells were seeded into 384-well black wall clear bottom plates at a density of 15,000 cells per well, resulting in 90–95% confluence after 24 h. The media were then removed from the wells and replaced with 20 μL of 10% calcium 4 dye (Molecular Devices) in physiological salt solution (PSS) (containing 5.9 mM KCl, 1.4 mM MgCl2, 10 mM HEPES, 1.2 mM NaH2 PO4, 5 mM NaHCO3, 140 mM NaCl, 11.5 mM glucose, and 1.8 mM CaCl2, pH 7.4) with 0.1% BSA. As reported, for N-type calcium channel FLIPR assays the cells were pre-incubated with 10 µM nifedipine added in the dye to ensure full inhibition of L-type calcium responses. For L-type calcium channel FLIPR assays, the cells were pre-incubated with 1 µM CVID added in the dye to ensure full inhibition of N-type calcium responses. Positive control on the first reagent plate contained 15 μL of PSS (0.1% BSA), whereas PSS (0.1% BSA) containing 1 µM CVID and 10 µM nifedipine (final concentration) was used as a negative control. The fluorescence readings were recorded and converted as described previously, and agonist containing 90 mM KCl + 5 mM CaCl2 was used in the second addition.

[1] = Homo sapiens, MCF7, 72 h, 72 h treatment

IC50 (human CaV3.1)	IC50 (MCF-7 cells; [1])	IC50 (CaV2.2)	IC50 (MCF-7 cells; 72 h treatment)	IC50 (MCF-7 cells; Homo sapiens, MCF7, 24 h, 24 h treatment)	SMILES	viability at 50 µM (MCF-7 cells; Homo sapiens, 72 h treatment)
> 200 µM	27 µM	56.7 ± 2.61 µM	–	–	c1ccc2c(Cc3c[nH]c4ccccc34)c[nH]c2c1 [DIM, 3,3′-diindolylmethane, reference compound]	3.65 ± 0.24%
158 ± 11.1 µM	42 µM	119 ± 6.51 µM	–	–	O=C(c1c[nH]c2ccccc12)c1c[nH]c2ccccc12 [DIM-one, 3,3′-diindolylmethanone]	52.3 ± 3.12%
53.5 ± 2 µM	6 µM	> 200 µM	6.1 µM	9.8 µM	O=C(c1c[nH]c2cc(Br)ccc12)c1c[nH]c2cc(Br)ccc12 [IV]	6.35 ± 0.46%

SMILES	IC50 (human CaV3.1)	IC50 (MCF-7 cells; [1])	IC50 (CaV2.2)	IC50 (MCF-7 cells; 72 h treatment)	IC50 (MCF-7 cells; Homo sapiens, MCF7, 24 h, 24 h treatment)	viability at 50 µM (MCF-7 cells; Homo sapiens, 72 h treatment)
O=C(c1cn(Cc2ccccc2)c2ccccc12)c1cn(Cc2ccccc2)c2ccccc12 [IX, bis(1-benzyl-1H-indol-3-yl)methanone]	35.1 ± 1.05 µM	–	82 ± 5.3 µM	–	–	–
